The text below walks through data of PubChem BioAssay (NCI).

What is called GI50 is the concentration giving 50% growth inhibition. The term TGI denotes the concentration at which net growth stops. Low readings indicate more potent growth arrest, high ones less potent growth arrest.

Holding throughout (assay): DTP human tumour cell line panel, 48 h
Test [1] has as its system SK-OV-3 ovarian.
The subject of test [2] is HCT-15 colon.
Test [3] deals with TK-10 renal.
In test [4] the test system is UACC-257 melanoma.
The test system of test [5] is PC-3 prostate.
Test [6] relates to SF-539 CNS.
For test [7], the system named is OVCAR-3 ovarian.
The subject of test [8] is ACHN renal.
The subject of test [9] is OVCAR-8 ovarian.
The subject of test [10] is NCI-H460 lung.

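Five concentrations, 48 hours, 96-well plates. Here, GI50 denotes the concentration required for 50% inhibition of growth. The concentration for full growth arrest is given as TGI.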

As to `CC(C)[C@@H]1NC(=O)[C@]2(C)CSC(=N2)c2ccnc(c2)CNC(=O)C[C@@H](/C=C/CCS)OC1=O`, the GI50 in test [1] was 0.0354 µM; in test [2], 9100 nM; in [3], 0.178 µM; in test [4] it was 0.0376 µM; in test [5], 0.0669 µM; in [6], 83.2 nM. Further, the GI50 in test [7] was 833 nM; in test [8], 2460 nM; in test [9], 128 nM; in test [10], under 25.3 nM. The TGI in test [1] is 0.197 µM; in [2] it was over 100 µM; in test [3], 1.64 µM; in [4] it was 0.526 µM; in test [5], over 100 µM; in test [6] it was over 65.5 µM. In addition, the TGI in test [7] was 6.87 µM; in test [8], 14.9 µM; in test [9], over 100 µM; in test [10], over 100 µM.
With `COc1cc2c(cc1OC)C(Cl)C(c1ccc(F)cc1)=C2Cl` (centres undefined), the TGI is 41.9 µM in test [1]; 28.4 µM in test [2]; 28.5 µM in test [3]; 28.8 µM in test [4]; 24.9 µM in test [5]; 30.4 µM in test [6]. For the same compound, the TGI was 30.6 µM in test [7], 26.1 µM in [8], 36.8 µM in test [9] and 24.8 µM in [10].
Consider `CC(=O)OCc1ccc2c(c1)C(O)NC(=O)O2` (centres undefined), for which the TGI in test [1], in [2], in test [3], in [4], in test [5] and in [6] was over 100 µM each time. The TGI was 59.4 µM in test [7], over 100 µM in test [8], over 100 µM in test [9] and over 100 µM in [10].
As to `COc1c2ccccc2c(OC)c2[nH]c(=O)ccc12`, the GI50 in [1] is 65.1 µM; in test [2], 1780 nM; in test [3] it was 51.2 µM; in [4] it was 2.5 µM; in test [5], 5.53 µM; in test [6] it was 4190 nM. The GI50 is 2310 nM in [7], 7920 nM in test [8], 13600 nM in test [9] and 1510 nM in test [10]. For the same compound, the TGI was over 100 µM in test [1]; 4.53 µM in [2]; over 100 µM in test [3]; 6.39 µM in [4]; over 43.7 µM in test [5]; over 36.5 µM in test [6]. Besides, the TGI in [7] was 6.89 µM; in test [8] it was over 100 µM; in test [9], over 100 µM; in test [10], 4 µM.
As for `Nc1nc2[nH]cc(CCc3ccc(C(=O)N[C@@H](CCC(=O)O)C(=O)O)cc3)c2c(=O)[nH]1`, the TGI in test [1], in test [2], in [3], in test [4], in test [5] and in test [7] was over 100 µM throughout. Also, the TGI in [8], in [9] and in test [10] was over 100 µM each time. Also, the GI50 was over 51.9 µM in [5]; 77.4 nM in [6]; 129 nM in test [8]; 154 nM in [9]; 272 nM in [10].
On to `O=[N+]([O-])c1cc([N+](=O)[O-])c(C(F)(F)F)cc1NN=C(c1ccc(O)cc1)c1ccc(O)cc1`, for which the GI50 in [1] is 4.25 µM; in test [2], 2840 nM; in [3], 6.06 µM; in [4] it was 4.29 µM; in [5], 3.11 µM; in test [6], 2010 nM. In addition, the GI50 in test [7] is 2420 nM; in test [8], 2410 nM; in test [9], 4200 nM; in test [10], 2050 nM. Further, the TGI in test [1] was 14.6 µM; in test [2] it was 11.7 µM; in test [3], 33.4 µM; in [4] it was 17.5 µM; in test [5], 78 µM; in test [6] it was 4.45 µM. The TGI in test [7] was 6.11 µM; in test [8] it was 8.23 µM; in [9] it was over 100 µM; in [10], 5.13 µM.
Consider `COc1ccc(C(c2cc(OC)c(OC)c(OC)c2)n2cncn2)cc1O` (centres undefined), for which the GI50 in test [1] is 0.402 µM; in test [2] it was 438 nM; in [3], over 100 µM; in test [4], over 100 µM; in [5], 0.431 µM; in [6], 300 nM. The GI50 in test [7] was 323 nM; in [8] it was 653 nM; in test [9], 1140 nM; in test [10], 414 nM. Further, the TGI in [1] was over 100 µM; in test [2], over 100 µM; in [3], over 100 µM; in test [4], over 100 µM; in test [5] it was over 100 µM; in [6], 1.11 µM. In addition, the TGI in test [7] is 1.48 µM; in test [8], over 100 µM; in [9], over 100 µM; in test [10], over 100 µM.
As to `Fc1cc(-c2nnc3n2N=C(c2ccc(Cl)cc2)CS3)c(Cl)cc1Cl`, the GI50 was 22.5 µM in [1]; 4820 nM in [2]; 3.09 µM in test [3]; 14.7 µM in test [4]; 16.6 µM in [5]; 3350 nM in [6]. The GI50 is 13600 nM in test [7], 3220 nM in test [8], 15300 nM in test [9] and 18200 nM in [10]. Besides, the TGI in test [1] was determined as 51.5 µM; in test [2], 13.8 µM; in test [3] it was 11.2 µM; in test [4], 28.8 µM; in test [5], 31.6 µM; in test [6], 11.1 µM. Also, the TGI in test [7] is 35.8 µM; in test [8], 9.58 µM; in test [9] it was 44.3 µM; in test [10], 37.4 µM.
`CCOc1ccc(NC2=CC(=O)C(=O)c3ccccc32)cc1`: the TGI was determined as 24.9 µM in test [1]; 6.72 µM in [2]; 21.6 µM in [3]; 3.04 µM in test [4]; 19.8 µM in test [5]; 4.18 µM in [6]. Further, the concentration for total growth inhibition (TGI) in [7] stood at 8.21 µM; in [8], 5.74 µM; in test [9], 15.4 µM; in [10] it was 6.97 µM.
